The text below walks through data of patent US10478430B2, “Compounds useful as inhibitors of ATR kinase and combination therapies thereof” (Vertex Pharmaceuticals Incorporated, priority 2012, dated 2019).

Holding throughout (type): cell-based
The test system of assay [1] is H23, U2OS, HCT116, MCF7, HT144, HT29 and PSN1 cancer cells. The experiment in a line: MTS cell density assay, synergy of VE-822 with Rucaparib across a cancer cell line panel. To be noted: seven cancer cell lines, VE-822 + Rucaparib, 96 h, in vitro. On the procedure: (§1) H23 non-small cell lung cancer (a), U2OS osteosarcoma (b), HCT116 colorectal cancer (c), MCF7 breast cancer (d), HT144 melanoma (e), HT29 colorectal cancer (f), and PSN1 pancreatic cancer (g) cells were treated in triplicate with the indicated concentrations of VE-822 and Rucaparib for 96h. Cell density was measured by 3-(4,5-dimethylthiazol-2-yl)-5-(3-carboxymethoxyphenyl)-2-(4-sulfophenyl)-2H-tetrazolium (MTS) assay, and synergy was analyzed at the 95% confidence interval with MacSynergy II software. A range of synergy was observed from strong (a) to negligible (g).
(§2) FIG. 4. H23 non-small cell lung cancer (a), U2OS osteosarcoma (b), HCT116 colorectal cancer (c), MCF7 breast cancer (d), HT144 melanoma (e), HT29 colorectal cancer (f) and PSN1 pancreatic cancer (g) cells were treated in triplicate with the indicated concentrations of VE-822 and Rucaparib for 96 h, cell density was measured by 3-(4,5-dimethylthiazol-2-yl)-5-(3-carboxymethoxyphenyl)-2-(4-sulfophenyl)-2H-tetrazolium (MTS) assay and synergy was analyzed at the 95% confidence interval with MacSynergy II software. A range of synergy was observed from strong (a) to negligible (g). The synergy plots can be analyzed using methods described in Reaper et al, “Selective Killing of ATM- or p53-deficient cancer cells through inhibition of ATR”, Nat. Chem. Bio. 2011, Apr. 13; 9 (7):428-430.

The test system of assay [2] is H23 non-small cell lung cancer and HFL1 normal lung cells. Kind of assay: MTS cell density assay, triple combination of VE-822, Rucaparib and ionizing radiation. Particulars: H23 versus HFL1 cells, with 2 Gy IR, 96 h, MacSynergy II modified for triple combination. On the procedure: (§3) In FIG. 6A, H23 non-small cell lung cancer (a) and HFL1 normal lung (b) cells were treated in triplicate with the indicated concentrations of VE-822 and Rucaparib together with 2 gray (Gy) of IR. Cell density was measured after 96h by 3-(4,5-dimethylthiazol-2-yl)-5-(3-carboxymethoxyphenyl)-2-(4-sulfophenyl)-2H-tetrazolium (MTS) assay, and synergy was analyzed at the 95% confidence interval with MacSynergy II software modified for triple combination studies (Nguyen et al, PLOS One 5:9332). In FIG. 6B, H23 non-small cell lung cancer (a) and HFL1 normal lung (b) cells were treated in triplicate with the indicated concentrations of VE-822 and Rucaparib together with 80nM cisplatin. Cell density was measured after 96h by 3-(4,5-dimethylthiazol-2-yl)-5-(3-carboxymethoxyphenyl)-2-(4-sulfophenyl)-2H-tetrazolium (MTS) assay, and synergy was analyzed at the 95% confidence interval with MacSynergy II software modified for triple combination studies (Nguyen et al, PLOS One 5:9332).
FIG. 6a. […] The synergy plots can be analyzed using methods described in Reaper et al, “Selective Killing of ATM- or p53-deficient cancer cells through inhibition of ATR”, Nat. […]

The test system is the same in assay [3]. The experiment in a line: MTS cell density assay, triple combination of VE-822, Rucaparib and cisplatin. To be noted: H23 versus HFL1 cells, with 80 nM cisplatin, 96 h, MacSynergy II modified for triple combination. On the procedure: as §3
FIG. 6b. […] The synergy plots can be analyzed using methods described in Reaper et al, “Selective Killing of ATM- or p53-deficient cancer cells through inhibition of ATR”, Nat. […]

In assay [4] the test system is PSN1 pancreatic cancer cells. Kind of assay: MTS cell density assay, synergy of VE-822 with Rucaparib (MacSynergy II). To be noted: VE-822 + Rucaparib, 96 h, 95% confidence interval. On the procedure:
as §1, §2

Another assay concerns HFL1 normal lung cells. Described as above. To be noted: VE-822 + Rucaparib, 96 h, 95% confidence interval. On the procedure: (§4) H23 non-small cell lung cancer (a) and HFL1 normal lung (b) cells were treated in triplicate with the indicated concentrations of VE-822 and Rucaparib for 96h. Cell density was measured by 3-(4,5-dimethylthiazol-2-yl)-5-(3-carboxymethoxyphenyl)-2-(4-sulfophenyl)-2H-tetrazolium (MTS) assay, and synergy was analyzed at the 95% confidence interval with MacSynergy II software.
FIG. 5. H23 non-small cell lung cancer (a) and HFL1 normal lung (b) cells were treated in triplicate with the indicated concentrations of VE-822 and Rucaparib for 96 h, cell density was measured by 3-(4,5-dimethylthiazol-2-yl)-5-(3-carboxymethoxyphenyl)-2-(4-sulfophenyl)-2H-tetrazolium (MTS) assay and synergy was analyzed at the 95% confidence interval with MacSynergy II software. The synergy plots can be analyzed using methods described in Reaper et al, “Selective Killing of ATM- or p53-deficient cancer cells through inhibition of ATR”, Nat. Chem. Bio. 2011, Apr. 13; 9 (7):428-430.

In assay [5] the test system is H23 non-small cell lung cancer cells. The description is as above. Particulars: VE-822 + Rucaparib, 96 h, 95% confidence interval. On the procedure: as §1, §4
FIG. 4. […] The synergy plots can be analyzed using methods described in Reaper et al, “Selective Killing of ATM- or p53-deficient cancer cells through inhibition of ATR”, Nat. […]
FIG. 5. […] The synergy plots can be analyzed using methods described in Reaper et al, “Selective Killing of ATM- or p53-deficient cancer cells through inhibition of ATR”, Nat. […]

“Also recorded” adds a separate entry of the source.

With `CNCc1ccc(-c2cc(-c3nc(-c4ccc(S(=O)(=O)C(C)C)cc4)cnc3N)on2)cc1` [VE-822], in assay [1], the “synergy with the PARP inhibitor Rucaparib across cancer cell lines” value is “synergizes with the PARP inhibitor Rucaparib in many (but not all) cancer cell lines”. For the same molecule, the “synergy of the combination of VE-822, Rucaparib and ionizing radiation” value in assay [2] was “cancer-selective synergistic effects”. The “synergy of the combination of VE-822, Rucaparib and cisplatin” value in assay [3] was “cancer-selective synergistic effects”. For the same molecule, the “synergy with the PARP inhibitor Rucaparib” value is “negligible” in assay [4], “not normal cells” with HFL1 normal lung cells and “strong; also recorded: synergizes with the PARP inhibitor Rucaparib in cancer” in assay [5].
